Source: patent publication US6498125B2, “Pyridine ketones useful as herbicides” (Syngenta Participations AG, priority 1998, dated 2002)

Columns and labels:
[1] = system: Monocotyledonous and dicotyledonous test plants; experiment: Example B2: post-emergence herbicidal action, 2 kg of AS/ha; format: in vivo; design: key: 1 = complete damage, 9 = no effect; conditions: 4- to 6-leaf stage, about 18 days; for post-emergence action rating, Avena: test plant Avena; for post-emergence action rating, Setaria: test plant Setaria; for post-emergence action rating, Sinapis: test plant Sinapis; for post-emergence action rating, Solanum: test plant Solanum; for post-emergence action rating, Stellaria: test plant Stellaria
Procedure: Monocotyledonous and dicotyledonous test plants are grown in plastic pots with standard soil in a greenhouse and, in the 4- to 6-leaf stage, are sprayed with an aqueous suspension of the test substances of the formula 1, prepared from a 25% wettable powder (Example F3, b) according to WO 97134485) or with an emulsion of the test substances of the formula I, prepared from a 25% emulsion concentrate (Example F1, c) according to WO 97/34485), corresponding to a dosage of 2 kg of AS/ha (500 l of water/ha). The test plants are then grown further under optimum conditions in a greenhouse. After a test period of about 18 days, the test is evaluated with a nine-level scale of rating (1=complete damage, 9=no effect). Ratings of 1 to 4 (in particular 1 to 3) mean good to very good herbicidal action. In this test, the compounds of the formula I show strong herbicidal action.

[2] = system: Monocotyledonous and dicotyledonous test plants; experiment: Example B1: pre-emergence herbicidal action, 2 kg of AS/ha; format: in vivo; conditions: 3 weeks, scale 1-9; for pre-emergence action rating, Avena: test plant Avena; for pre-emergence action rating, Cyperus: test plant Cyperus; for pre-emergence action rating, Setaria: test plant Setaria; for pre-emergence action rating, Sinapis: test plant Sinapis; for pre-emergence action rating, Solanum: test plant Solanum; for pre-emergence action rating, Stellaria: test plant Stellaria
Procedure: Monocotyledonous and dicotyledonous test plants are sown in standard soil in plastic pots. Immediately after sowing, the test substances are sprayed on (500 l of water/ha) as an aqueous suspension (prepared from a 25% wettable powder (Example F3, b) according to WO 97/34485) or emulsion (prepared from a 25% emulsion concentrate (Example F1, c)), corresponding to a dosage of 2 kg of AS/ha. The test plants are then grown under optimum conditions in a greenhouse. After a test period of 3 weeks, the test is evaluated with a nine-level scale of ratings (1=complete damage, 9=no effect). Ratings of 1 to 4 (in particular 1 to 3) mean good to very good herbicidal action.

Compound | post-emergence action rating, Avena ([1]; scale 1-9) | post-emergence action rating, Setaria ([1]; scale 1-9) | post-emergence action rating, Sinapis ([1]; scale 1-9) | post-emergence action rating, Solanum ([1]; scale 1-9) | post-emergence action rating, Stellaria ([1]; scale 1-9) | pre-emergence action rating, Avena [2] | pre-emergence action rating, Cyperus [2] | pre-emergence action rating, Setaria [2] | pre-emergence action rating, Sinapis [2] | pre-emergence action rating, Solanum [2] | pre-emergence action rating, Stellaria [2] | post-emergence action rating, Avena ([1]; scale 1-9, listed as 1.010) | post-emergence action rating, Stellaria ([1]; scale 1-9, listed as 1.010)
CC=CC(=O)OC1=C(C(=O)c2ccc(C(F)(F)F)nc2C)C(=O)C2CCC1C2 (centres unmarked) [Compound 1.406] | 2 | 2 | 1 | 1 | 2 | 2 | 1 | 1 | 1 | 1 | 2 |  | 
CCOC(=O)OC1=C(C(=O)c2ccc(C(F)(F)F)nc2C)C(=O)C2CCC1C2 (centres unmarked) [Compound 1.409] | 2 | 1 | 1 | 1 | 2 | 1 | 1 | 1 | 1 | 1 | 1 |  | 
COc1nc(C(F)(F)F)ccc1C(=O)C1=C(O)C2CCC(C2)C1=O (centres unmarked) [Compound 1.043] | 2 | 2 | 1 | 2 | 2 | 4 | 2 | 1 | 2 | 1 | 2 |  | 
Cc1nc(C(F)(F)F)ccc1C(=O)C1=C(O)C(C)(C)ON(C)C1=O [Compound 4.009] | 1 | 1 | 1 | 1 | 1 | 1 | 2 | 1 | 2 | 1 | 3 |  | 
O=C(C1=C(O)C2CCC(C2)C1=O)c1ccc(C(F)(F)F)nc1 (centres unmarked) [Compound 1.01] |  | 2 | 1 | 2 |  | 2 | 1 | 1 | 1 | 1 | 2 | 2 | 4
CCC(=O)OC1=C(C(=O)c2ccc(C(F)(F)F)nc2C)C(=O)C2CCC1C2 (centres unmarked) [Compound 1.404] | 2 | 2 | 1 | 1 | 2 | 2 | 1 | 1 | 2 | 1 | 2 |  | 
CCN(CC)C(=O)OC1=C(C(=O)c2ccc(C(F)(F)F)nc2C)C(=O)C2CCC1C2 (centres unmarked) [Compound 1.41] | 1 | 1 | 1 | 1 | 1 | 2 | 1 | 1 | 1 | 1 | 1 |  | 
